Experimental data: patent US4895727A, “Pharmaceutical vehicles for exhancing penetration and retention in the skin” (priority 1985, dated 1990)
Read-outs that look alike come from different tables or passages of the source.

Tests used:
[1] = system: human breast adenocarcinoma, MX-1
[2] = background; cited from earlier work
[3] = 0.257 moles per 100 grams; general statement; cited from earlier work
[4] = number of animals of five, single intratumor injection 0.01 ml, standard dosage level

Compound | Premature Death ([1]; in vivo) | Tumor at Death ([1]; in vivo) | other results
COc1cccc2c1C(=O)c1c(O)c3c(c(O)c1C2=O)C[C@@](O)(C(=O)CO)C[C@@H]3O[C@H]1C[C@H](N)[C@H](O)[C@H](C)O1 [adriamycin (no Zn), adriamycin] | 1 | – | –
O=P1(N(CCCl)CCCl)NCCCO1 (centres unmarked) [cyclophosphamide (no Zn), cyclophosphamide] | 0 | 5 | Tumor Free 60 Days [1, 4]: 0; Tumor Recurrence [1, 4]: 0
CC/C(=C(/CC)c1ccc(O)cc1)c1ccc(O)cc1 [diethylstilbestrol (no Zn), diethylstilbestrol] | 2 | – | –
CO[C@@]12[C@H](COC(N)=O)C3=C(C(=O)C(C)=C(N)C3=O)N1C[C@@H]1N[C@@H]12 [mitomycin (no Zn), mitomycin] | 4 | – | –
CC(=O)Oc1ccc(C=CC=Cc2ccccc2)cc1OC(C)=O [1-(3,4-diacetoxyphenyl)-4-phenyl-buta-1,3-diene] | 0 | – | –
CC(Cc1ccc(O)c(O)c1)C(C)Cc1ccc(O)c(O)c1 (racemic) [dl-NDGA (no Zn), nordihydroguaiaretic acid] | 0 | 1 | Tumor Free 60 Days [1, 4]: 4; Tumor Recurrence [1, 4]: 0
COc1cc(C2c3cc4c(cc3C(OC3OC5COC(C)OC5C(O)C3O)C3COC(=O)C23)OCO4)cc(OC)c1O (stereo not drawn) [VP-16 (no Zn), epipodophyllotoxin beta-D ethylidene glucopyranoside] | 2 | 3 | Tumor Free 60 Days ([1]; in vivo): 2; Tumor Recurrence ([1]; in vivo): 0
O=C(O)CCCCCCCC(=O)O [azelaic acid (no Zn), azelaic acid] | 0 | – | –
COc1cc(C2c3cc4c(cc3C(OC3OC5COC(c6cccs6)OC5C(O)C3O)C3COC(=O)C23)OCO4)cc(OC)c1O (stereo not drawn) [VM-26 (no Zn), epipodophyllotoxin beta-D thenylidene glucopyranoside] | 0 | 5 | Tumor Free 60 Days ([1]; in vivo): 0; Tumor Recurrence ([1]; in vivo): 0
O=C(O)C=Cc1ccc(O)cc1 [p-hydroxycinnamic acid (no Zn), p-hydroxycinnamic acid] | 0 | – | –
COc1cccc2c1C(=O)c1c(O)c3c(c(O)c1C2=O)C[C@@](O)(C(C)=O)C[C@@H]3O[C@H]1C[C@H](N)[C@H](O)[C@H](C)O1 [daunomycin (no Zn), daunomycin] | 2 | – | –
COc1cc(C2c3cc4c(cc3C(O)C3COC(=O)C23)OCO4)cc(OC)c1O (centres unmarked) [4'-demethylepipodophyllotoxin (no Zn), 4'-demethylepipodophyllotoxin] | 0 | 4 | Tumor Free 60 Days ([1]; in vivo): 1; Tumor Recurrence ([1]; in vivo): 3
CN(Cc1cnc2nc(N)nc(N)c2n1)c1ccc(C(=O)N[C@@H](CCC(=O)O)C(=O)O)cc1 [methotrexate] | – | – | systemic toxicity [2]: systemically toxic
O=C1c2c(O)cccc2Cc2cccc(O)c21 [dithranol (no Zn), dithranol] | 0 | – | –
N.N.[Cl][Pt][Cl] [platinum cis-diamine-dichloride (no Zn), platinum cis-diamine-dichloride] | 0 | 4 | Tumor Free 60 Days [1, 4]: 1; Tumor Recurrence [1, 4]: 0
norisoguaiacin [norisoguaiacin (no Zn)] | 1 | 1 | Tumor Free 60 Days [1, 4]: 2; Tumor Recurrence [1, 4]: 0
Oc1ncnc2[nH]ncc12 [allopurinol (no Zn), allopurinol] | 0 | – | –
[Cl-].[Cl-].[Zn+2] [zinc chloride] | – | – | concentration causing tissue destruction when topically applied [3]: ≥ 35%
Oc1ccc(CCc2ccc(CCc3ccc(O)c(O)c3)cc2)cc1O [1,4-bis(3,4-dihydroxyphenethyl)-benzene] | 0 | – | –
CC(C)(C)c1cccc(O)c1 [3-tertbutylphenol (no Zn), 3-tertbutylphenol] | 3 | – | –
